This passage reports Emax, EC50 and Ki results from patent US8846951B2 (AbbVie Inc., priority 2009, dated 2014).

Molecules are shown by their SMILES. Where “and” joins values, the source holds several entries; their conditions need not be identical. Equal entries are not always repeated. Where two headings read alike, the source gives them in different places.

One experiment deals with T1, 5HT2B receptors (Homo sapiens, UniProt P41595).
T1 construct: expressed in transfected cells; host or cells: CHO-K1 cells
Nature of the experiment: Human 5-HT2B functional high throughput screening assay in CHO-K1 cells (calcium flux). Type of experiment: cell-based. The settings on record: for EC50: CHO-K1 cells, calcium flux. A digest of the protocol: (§1)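 Agonism was measured as FLIPR fluorescence increase (480/530 nm, 25° C) with Ca4 dye and 2.5 mM probenecid, in serum-starved CHO-K1 lines overexpressing human 5-HT2C or 5-HT2B. Six-point 1:10 dilutions from 10 μM (0.2% DMSO final) were fitted by 4-parameter logistics. Responses were normalised to serotonin to give EC50 and % Emax.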

Experiment [1] deals with T2, 5HT2C receptors (Homo sapiens, UniProt P28335).
T2 sequence (P28335 33-458): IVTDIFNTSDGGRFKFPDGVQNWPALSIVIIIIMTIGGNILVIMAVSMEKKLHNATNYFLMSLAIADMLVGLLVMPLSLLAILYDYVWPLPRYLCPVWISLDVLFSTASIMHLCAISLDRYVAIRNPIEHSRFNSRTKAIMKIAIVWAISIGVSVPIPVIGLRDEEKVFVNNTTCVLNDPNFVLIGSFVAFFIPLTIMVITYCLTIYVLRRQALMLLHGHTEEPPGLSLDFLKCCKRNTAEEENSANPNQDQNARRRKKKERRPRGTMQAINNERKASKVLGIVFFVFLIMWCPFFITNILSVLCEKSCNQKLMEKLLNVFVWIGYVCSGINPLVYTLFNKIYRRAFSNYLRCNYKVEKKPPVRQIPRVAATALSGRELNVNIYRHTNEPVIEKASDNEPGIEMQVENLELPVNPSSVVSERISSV
Nature of the experiment: Human 5-HT2C functional high throughput screening assay in CHO-K1 cells (calcium flux). Further details: expressed in transfected cells; host or cells: CHO-K1 cells; call rule not given here. The settings on record: for Emax: 5-HT2C, maximum functional response as percentage relative to the effect of serotonin; for EC50: CHO-K1 cells, calcium flux. Type of experiment: cell-based. A digest of the protocol: as §1
(Calcium flux is commonly read through the fluorescence of an indicator in the cells.)

Experiment [2] has as its target T2, 5HT2C receptors. Nature of the experiment: Human 5-HT2C functional assay in CHO-K1 cells (96-well, calcium, FLIPR). Type of experiment: cell-based. Further details: expressed in transfected cells. The settings on record: 5-HT2c agonist activity, CHO-K1 cells stably transfected. As for the experimental part: (iv) Human 5-HT2C Functional Assay in CHO-K1 Cells
Functional activity was determined by testing the effect of the compounds on intracellular calcium levels in CHO-K1 cells stably transfected with the human 5-HT2C receptor. Cells were seeded into 96-well plates at 60,000 cells/well and grown overnight in tissue culture medium (UltraCHO™ (Lonza), containing 1% dFCS, 250 μg/mL Zeocin, 400 μg/mL Geneticin) at 37° C. and 5% CO2. Growth medium was replaced by medium without dFCS for overnight incubation. Cells were loaded with a fluorescent calcium-sensitive dye in the presence of probenicid according to the manufacturer's protocol (FLIPR Ca4 Assay kit, Molecular Devices). Serial compound dilutions (final concentrations 10^−10 to 10^−5 M) were added to the cells and the maximum calcium response was determined using a FLIPR instrument (Molecular Devices). Concentration-response curves were fitted using a four-parameter logistic equation (GraphPad Prism). The concentration at which the compound exerts half its maximal effect is named the ‘effective concentration 50’ or ‘EC50’ and is listed in Table 5.

Experiment [3] has as its target T3, human serotonin 5-HT2c receptor (Homo sapiens, UniProt P28335).
T3 construct: expressed in transfected cells; host or cells: CHO cells (membrane homogenates)
T3 sequence (P28335 33-458): T2 sequence (P28335 33-458)
Kind of experiment: Human 5-HT2C receptor radioligand binding assay (agonist site, [125I]DOI). The settings on record: 5-HT2c agonist site; transfected CHO cell membranes; 0.2 nM [125I](±)DOI. As for the experimental part:
(i) Human 5-HT2C Receptor Radioligand Binding Assay
Affinity of compounds for the agonist site of the […], receptor in transfected CHO cells was determined in a radioligand binding assay essentially as described by Bryant, H. U., et al., Life Sciences (1996) 59(15), 1259-1268.

Experiment [4] deals with T2, 5HT2C receptors. Nature of the experiment: Human 5-HT2C functional assay in 1321N1 cells (intracellular calcium, FLIPR). It is filed as cell-based. Further details: expressed in transfected cells; host or cells: 1321N1 cells. The settings on record: 5-HT2c agonist activity, maximum calcium response. The method, boiled down: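 Intracellular calcium (Fluo-4, FLIPR peak response) was measured in stably transfected human 5-HT2C 1321N1 cells after overnight serum-free culture. Compounds were applied at final 10^−10 to 10^−5 M either alone or together with 10^−9 M serotonin. Half-maximal effect concentration was derived by four-parameter logistic fitting.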

[5] abbreviates: 5-HT2B, maximum functional response as percentage relative to the effect of serotonin.
The mark [6] stands for this setting: 5-HT2B agonist activity, read-out: EC50.
Where [7] appears, read: 5-HT2C agonist activity, read-out: EC50.

T1 sequence (P41595 whole entry): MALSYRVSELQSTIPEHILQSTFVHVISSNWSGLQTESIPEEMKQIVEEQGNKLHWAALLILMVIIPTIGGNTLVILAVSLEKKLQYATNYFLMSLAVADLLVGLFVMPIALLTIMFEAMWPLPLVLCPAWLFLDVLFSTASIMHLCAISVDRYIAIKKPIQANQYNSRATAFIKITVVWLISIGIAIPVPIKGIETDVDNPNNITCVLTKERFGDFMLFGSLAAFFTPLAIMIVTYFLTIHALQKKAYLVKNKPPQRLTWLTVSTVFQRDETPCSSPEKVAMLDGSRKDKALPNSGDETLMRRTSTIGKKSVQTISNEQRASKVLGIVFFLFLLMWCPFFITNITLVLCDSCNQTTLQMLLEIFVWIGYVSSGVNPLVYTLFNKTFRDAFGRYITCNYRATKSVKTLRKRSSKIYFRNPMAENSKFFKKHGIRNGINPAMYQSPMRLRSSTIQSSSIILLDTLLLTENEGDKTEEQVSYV

One may read the Emax as the greatest response seen or fitted, relative to the assay's reference. The EC50 is the concentration giving half of the maximal effect. As usually defined, the Ki is a measure of affinity in units of concentration, obtained from inhibition or displacement. High values mean lower affinity, low ones higher affinity. On to `CN1C[C@H]2CNC(=O)c3cc(Cl)ccc3[C@@H]2C1` (relative stereo) [Example 53, Trans-8-chloro-2-methyl-1,2,3,3a,4,5-hexahydrobenzo[e]pyrrolo[3,4-c]azepin-6(10bH)-one], for which the Emax result on 5HT2B receptors (setting [5]) is “inactive”; on 5HT2C receptors [1] (CHO-K1) it was 100%. The EC50 is greater than 10000 nM on 5HT2B receptors (EC50, 5-HT2B agonist activity); 20 nM at 5HT2C receptors [1] (EC50, 5-HT2C agonist activity); 2.93 nM at 5HT2C receptors [2]. The Ki in experiment [3] was 8.1 nM.
With `O=C1NC[C@@H]2CN(Cc3ccccc3)C[C@H]2c2cc(F)ccc21` (relative stereo) [Example 63, Trans-2-benzyl-9-fluoro-1,2,3,3a,4,5-hexahydrobenzo[c]pyrrolo[3,4-e]azepin-6(10bH)-one], the EC50 on 5HT2B receptors (setting [6]) was greater than 10000 nM; at 5HT2C receptors [1] (setting [7]), 200 nM; on 5HT2C receptors [2] it was 145 nM. For the same compound, the Emax result was “inactive” at 5HT2B receptors (setting [5]) and 120% at 5HT2C receptors [1] (CHO-K1, read-out: Emax). In addition, in experiment [3], the affinity corresponds to a Ki of 140 nM.
For the compound `O=C1NC[C@@H]2CNC[C@H]2c2cc(F)ccc21` (relative stereo) [Example 64, Trans-9-fluoro-1,2,3,3a,4,5-hexahydrobenzo[c]pyrrolo[3,4-e]azepin-6(10bH)-one], the EC50 at 5HT2C receptors [2] came out at 17 nM. Besides, the Ki in experiment [3] stood at 1000 nM.
`O=C1NC[C@@H]2CNC[C@H]2c2c(F)cccc21` (relative stereo) [Example 67, Trans-10-fluoro-1,2,3,3a,4,5-hexahydrobenzo[c]pyrrolo[3,4-e]azepin-6(10bH)-one]: the Emax on 5HT2B receptors (CHO-K1) was 110%; at 5HT2C receptors [1] (CHO-K1), greater than 120%. The EC50 on 5HT2B receptors (EC50, 5-HT2B agonist activity) is 1000 nM and > 10000 nM; on 5HT2C receptors [4] it was 6.55 nM; at 5HT2C receptors [1] (EC50, 5-HT2C agonist activity), 5 nM; on 5HT2C receptors [2] it was 2.5 nM. Moreover, the Ki in experiment [3] was found to be 43 nM.
Regarding `CN1C[C@H]2CNC(=O)c3cc(-c4ccccc4)ccc3[C@@H]2C1` (relative stereo) [Example 86, Trans-2-methyl-8-phenyl-1,2,3,3a,4,5-hexahydrobenzo[e]pyrrolo[3,4-c]azepin-6(10bH)-one], the EC50 at 5HT2B receptors (setting [6]) was greater than 10000 nM; at 5HT2C receptors [1] (setting [7]), 7 nM; at 5HT2C receptors [2], 3.7 nM. Also, the Emax result at 5HT2B receptors (setting [5]) was “inactive”; at 5HT2C receptors [1] (CHO-K1, read-out: Emax) it was 110%.
`CN1C[C@H]2CNC(=O)c3ccc(F)cc3[C@@H]2C1` (relative stereo) [Example 90, Trans-9-fluoro-2-methyl-1,2,3,3a,4,5-hexahydrobenzo[e]pyrrolo[3,4-c]azepin-6(10bH)-one]: the maximal response (Emax) result is “inactive” on 5HT2B receptors (setting [5]) and 85% at 5HT2C receptors [1] (CHO-K1). In addition, the EC50 at 5HT2B receptors (EC50, 5-HT2B agonist activity) was greater than 10000 nM; at 5HT2C receptors [1] (EC50, 5-HT2C agonist activity) it was 300 nM; on 5HT2C receptors [2], 14.5 nM.
As for `CN1C[C@H]2CNC(=O)c3cc(F)ccc3[C@@H]2C1` (relative stereo) [Example 91, Trans-8-fluoro-2-methyl-1,2,3,3a,4,5-hexahydrobenzo[e]pyrrolo[3,4-c]azepin-6(10bH)-one], the Emax was 25% at 5HT2B receptors (CHO-K1) and greater than 120% on 5HT2C receptors [1] (CHO-K1). Besides, the EC50 was determined as 3000 nM at 5HT2B receptors (EC50, 5-HT2B agonist activity); 20 nM on 5HT2C receptors [1] (EC50, 5-HT2C agonist activity); 1.5 nM at 5HT2C receptors [2].
`c1ccc(CN2C[C@@H]3CCOc4ccccc4[C@H]3C2)cc1` (relative stereo) [Example 93, Trans-2-benzyl-2,3,3a,4,5,10b-hexahydro-1H-[1]benzoxepino[4,5-c]pyrrole]: the EC50 at 5HT2B receptors (setting [6]) was greater than 10000 nM; at 5HT2C receptors [1] (setting [7]), 100 nM; on 5HT2C receptors [2] it was 4.4 nM. The Emax entry at 5HT2B receptors (setting [5]) is “inactive”; on 5HT2C receptors [1] (CHO-K1, read-out: Emax), greater than 120%.
In the case of `c1ccc2c(c1)OCC[C@H]1CNC[C@H]21` (relative stereo) [Example 94, Trans-2,3,3a,4,5,10b-hexahydro-1H-[1]benzoxepino[4,5-c]pyrrole], the Emax on 5HT2B receptors (CHO-K1) was 45%; at 5HT2C receptors [1] (CHO-K1) it was greater than 120%. The EC50 at 5HT2B receptors (EC50, 5-HT2B agonist activity) amounted to 500 nM; at 5HT2C receptors [1] (EC50, 5-HT2C agonist activity), 30 nM; at 5HT2C receptors [2], 124 nM.
As to `Clc1ccc2c(c1)[C@H]1CNC[C@@H]1CCO2` (relative stereo) [Example 95, Trans-9-chloro-2,3,3a,4,5,10b-hexahydro-1H-[1]benzoxepino[4,5-c]pyrrole], the Emax at 5HT2B receptors (CHO-K1) was 35%; on 5HT2C receptors [1] (CHO-K1), greater than 120%. Moreover, the EC50 at 5HT2C receptors [2] turned out to be 1.7 nM.
Take `c1ccc2c(c1)OCC[C@H]1CNC[C@@H]21` (relative stereo) [Example 96, Cis-2,3,3a,4,5,10b-hexahydro-1H-[1]benzoxepino[4,5-c]pyrrole]: the values for the Emax at 5HT2B receptors (CHO-K1) and at 5HT2C receptors [1] (CHO-K1) were 50% and 120%, respectively. Besides, the EC50 at 5HT2B receptors (EC50, 5-HT2B agonist activity) is 1000 nM; on 5HT2C receptors [1] (EC50, 5-HT2C agonist activity), 200 nM; at 5HT2C receptors [2], 36.9 nM. This compound yielded a Ki in experiment [3] of 380 nM.
In the case of `O=C1NC[C@@H]2CNC[C@H]2c2cccc(F)c21` (single isomer, unassigned) [Example 62, Trans-7-fluoro-1,2,3,3a,4,5-hexahydrobenzo[e]pyrrolo[3,4-c]azepin-6(10bH)-one], the Emax on 5HT2B receptors (setting [5]) is reported as 80%; at 5HT2C receptors [1], greater than 120%. The EC50 at 5HT2B receptors (EC50, 5-HT2B agonist activity) was determined as 700 nM; on 5HT2C receptors [1] (EC50, 5-HT2C agonist activity), 1.2 nM; on 5HT2C receptors [2], 0.3 nM. Also, in experiment [3], the Ki was found to be 8.2 nM.
